From patent publication US9682976B2, “Protein kinase C inhibitors and uses thereof” (Rigel Pharmaceuticals, Inc., priority 2012, dated 2017)

Test system: PKC mediated IL-2 production
Assay: IL-2 ELISA, human primary T cell, anti CD3+CD28+
Assay type: cell-based
Conditions: human primary T cells stimulated with αCD3 and αCD28, 24 hours
Outline: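 IL-2 was quantified by ELISA in 24 h supernatants from primary human T cells given a 1 h compound pre-treatment at 37° C. These cells had been expanded from blood mononuclear cells on αCD3/αCD28 with IL-2, and the IL-2 was removed by washing. Stimulation used plate-bound αCD3 ([…]) plus αCD28 (5 μg/ml); the counter assay used PMA (0.5 ng/ml) with ionomycin (0.1 uM) instead.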

## CC1(C)C[C@H](Nc2nc(Nc3ccc(C4CC4)c(C#N)c3)ncc2Cl)C[C@@H]2CCCN21 [Compound 155, 5-((5-chloro-4-(((7R,8aS)-5,5-dimethyloctahydroindolizin-7-yl)amino)pyrimidin-2-yl)amino)-2-cyclopropylbenzonitrile]
Homo sapiens, T-cell, 24 h
  EC50: < 0.1 µM

## CC1(C)Oc2ccc(Nc3ncc(F)c(N[C@@H]4C[C@@H]5CCCN5C(C)(C)C4)n3)cc2-n2nnnc21 [Compound 4, N2-(4,4-dimethyl-4H-benzo[b]tetrazolo[1,5-d][1,4]oxazin-8-yl)-5-fluoro-N4-(octahydro-5,5-dimethylindolizin-7-amine)pyrimidine-2,4-diamine]
  EC50: 1 to 10 µM

## Cn1nnn(-c2cc(Nc3ncc(F)c(N[C@@H]4C[C@@H]5CCCN5C(C)(C)C4)n3)c(F)cc2C#CCO)c1=O [Compound 96, 1-(5-(4-((7R,8aS)-octahydro-5,5-dimethylindolizin-7-ylamino)-5-fluoropyrimidin-2-ylamino)-4-fluoro-2-(3-hydroxyprop-1-ynyl)phenyl)-4-methyl-1H-tetrazol-5(4H)-one]
Homo sapiens, T-cell, 24 h
  EC50: < 0.1 µM

## CC1(C)CC[C@H]2C[C@@H](Nc3nc(Nc4ccc(OC5CC(O)C5)c(Cl)c4)ncc3F)CCN21 (stereo partly drawn) [Compound 312, 3-(2-Chloro-4-((4-(((7S,8aS)-3,3-dimethyloctahydroindolizin-7-yl)amino)-5-fluoropyrimidin-2-yl)amino)phenoxy)cyclobutan-1-ol]
Homo sapiens, T-cell, 24 h
  EC50: 0.1 to 0.5 µM

## CC1(C)C[C@H](Nc2nc(Nc3ccc(NCC(CCl)C(N)=O)c(C(F)(F)F)c3)ncc2F)C[C@@H]2CCCN21 (stereo partly drawn) [Compound 325, 1-(4-(4-((7R,8aS)-octahydro-5,5-dimethylindolizin-7-ylamino)-5-fluoropyrimidin-2-ylamino)-24(2-trifluoromethylphenylamino)methyl)-3-chloropropanamide]
Homo sapiens, T-cell, 24 h
  EC50: 0.5 to 1 µM

## [2H]C([2H])(O)C([2H])([2H])Oc1ccc(Nc2ncc(F)c(N[C@@H]3C[C@@H]4CCCN4C(C)(C)C3)n2)cc1OC [Compound 217, 2-(4-((4-(((7R,8aS)-5,5-dimethyloctahydroindolizin-7-yl)amino)-5-fluoropyrimidin-2-yl)amino)-2-methoxyphenoxy)ethan-1,1,2,2-d4-1-ol]
Homo sapiens, T-cell, 24 h
  EC50: > 10 µM

## [2H]C([2H])(O)C([2H])([2H])Oc1cc(F)c(Nc2ncc(F)c(N[C@@H]3C[C@@H]4CCCN4C(C)(C)C3)n2)cc1-n1nnn(C)c1=O [Compound 221, 1-(5-((4-(((7R,8aS)-5,5-dimethyloctahydroindolizin-7-yl)amino)-5-fluoropyrimidin-2-yl)amino)-4-fluoro-2-(2-hydroxyethoxy-1,1,2,2-d4)phenyl)-4-methyl-1,4-dihydro-5H-tetrazol-5-one]
T-cell
  EC50: < 0.1 µM

## Cn1nnn(-c2cc(Nc3ncc(F)c(N[C@@H]4C[C@@H]5CCCN5C(C)(C)C4)n3)c(F)cc2CCCO)c1=O [Compound 97, 1-(5-(4-((7R,8aS)-octahydro-5,5-dimethylindolizin-7-ylamino)-5-fluoropyrimidin-2-ylamino)-4-fluoro-2-(3-hydroxypropyl)phenyl)-4-methyl-1H-tetrazol-5(4H)-one]
Homo sapiens, T-cell, 24 h
  EC50: 0.1 to 0.5 µM

## CC1C(Nc2nc(Nc3cc(OC(F)F)c(C4CC4)cc3F)ncc2F)CC(C)(C)N2CCCC12 (centres unmarked) [Compound 75]
  EC50: 0.1 to 0.5 µM

## C[C@H](CO)COc1cc(F)c(Nc2ncc(F)c(N[C@@H]3C[C@@H]4CCCN4C(C)(C)C3)n2)cc1-n1nnn(C)c1=O [Compound 222, 1-(5-((4-(((7R,8aS)-5,5-dimethyloctahydroindolizin-7-yl)amino)-5-fluoropyrimidin-2-yl)amino)-4-fluoro-2-((R)-3-hydroxy-2-methylpropoxy)phenyl)-4-methyl-1,4-dihydro-5H-tetrazol-5-one]
Homo sapiens, T-cell, 24 h
  EC50: 0.1 to 0.5 µM

## CC1(C)C[C@H](Nc2nc(Nc3ccc(Cl)c(-n4nnnc4C4CC4)c3)ncc2Cl)C[C@@H]2CCCN21 [Compound 182, 5-chloro-N2-(4-chloro-3-(5-cyclopropyl-1H-tetrazol-1-yl)phenyl)-N4-((7R,8aS)-5,5-dimethyloctahydroindolizin-7-yl)pyrimidine-2,4-diamine]
Homo sapiens, T-cell, 24 h
  EC50: < 0.1 µM

## Cn1nnn(-c2cc(Nc3ncc(F)c(N[C@@H]4C[C@@H]5CCCN5C(C)(C)C4)n3)c(F)cc2OCC2CCOCC2)c1=O [Compound 170, 1-(5-((4-(((7R,8aS)-5,5-dimethyloctahydroindolizin-7-yl)amino)-5-fluoropyrimidin-2-yl)amino)-4-fluoro-2-((tetrahydro-2H-pyran-4-yl)methoxy)phenyl)-4-methyl-1,4-dihydro-5H-tetrazol-5-one]
Homo sapiens, T-cell, 24 h
  EC50: 0.1 to 0.5 µM

## CC1(C)CC(Nc2nc(Nc3ccc(O[C@@H]4CCOC4)c(C#N)c3)ncc2F)CC2CCCN21 (mixture of isomers) [Compound 57, 2-((R)-tetrahydrofuran-3-yloxy)-5-(5-fluoro-4-(octahydro-5,5-dimethylindolizin-7-ylamino)pyrimidin-2-ylamino)benzonitrile]
Homo sapiens, T-cell, 24 h
  EC50: 0.1 to 0.5 µM

## CC(=O)N(C)c1cc(Nc2ncc(F)c(NC3CC(C)(C)N4CCCC4C3C)n2)c(F)cc1C1CC1 (centres unmarked) [Compound 73]
  EC50: 0.1 to 0.5 µM

## CC1(C)C[C@H](Nc2nc(Nc3ccc(Br)c(C#N)c3)ncc2F)C[C@@H]2CCCN21 [Compound 180, 2-bromo-5-((4-(((7R,8aS)-5,5-dimethyloctahydroindolizin-7-yl)amino)-5-fluoropyrimidin-2-yl)amino)benzonitrile]
Homo sapiens, T-cell, 24 h
  EC50: 0.1 to 0.5 µM

## Cn1nnn(-c2cc(Nc3ncc(F)c(N[C@@H]4C[C@@H]5CCCN5C(C)(C)C4)n3)c(F)cc2OCCN)c1=O [Compound 228, 1-(2-(2-aminoethoxy)-5-((4-(((7R,8aS)-5,5-dimethyloctahydroindolizin-7-yl)amino)-5-fluoropyrimidin-2-yl)amino)-4-fluorophenyl)-4-methyl-1,4-dihydro-5H-tetrazol-5-one]
  EC50: 0.1 to 0.5 µM

## Cc1ccc(Nc2ncc(F)c(N[C@@H]3C[C@@H]4CCCN4C(C)(C)C3)n2)cc1-n1nnn(C2COC2)c1=O [Compound 276, 1-(5-(4-((7R,8aS)-octahydro-5,5-dimethylindolizin-7-ylamino)-5-fluoropyrimidin-2-ylamino)-2-methylphenyl)-4-(oxetan-3-yl)-1H-tetrazol-5(4H)-one]
Homo sapiens, T-cell, 24 h
  EC50: < 0.1 µM

## COCCOCCOc1ccc(Nc2ncc(F)c(N[C@@H]3C[C@@H]4CCCN4C(C)(C)C3)n2)cc1C#N [Compound 190, 5-((4-(((7R,8aS)-5,5-dimethyloctahydroindolizin-7-yl)amino)-5-fluoropyrimidin-2-yl)amino)-2-(2-(2-methoxyethoxy)ethoxy)benzonitrile]
Homo sapiens, T-cell, 24 h
  EC50: 0.1 to 0.5 µM

## CC(C)N1CCN(c2ccc(Nc3ncc(F)c(N[C@@H]4C[C@@H]5CCCN5C(C)(C)C4)n3)cc2C#N)CC1 [Compound 138, 5-(4-((7R,8aS)-octahydro-5,5-dimethylindolizin-7-ylamino)-5-fluoropyrimidin-2-ylamino)-2-(4-isopropylpiperazin-1-yl)benzonitrile]
Homo sapiens, T-cell, 24 h
  EC50: < 0.1 µM

## CC1(C)C[C@H](Nc2nc(Nc3cc(S(F)(F)(F)(F)F)ccc3F)ncc2F)C[C@@H]2CCCN21 [Compound 71]
Homo sapiens, T-cell, 24 h
  EC50: 0.5 to 1 µM
